Reference: PMC3914206

Experiments:
panel of 442 kinases [1] = biological target: T1, panel of 442 kinases (Homo sapiens, UniProt Q32MK0); format: binding; conditions: Compound Concentration 10 µM
T1 construct: purchased KINOMEscan
T1 sequence (Q32MK0 1-819): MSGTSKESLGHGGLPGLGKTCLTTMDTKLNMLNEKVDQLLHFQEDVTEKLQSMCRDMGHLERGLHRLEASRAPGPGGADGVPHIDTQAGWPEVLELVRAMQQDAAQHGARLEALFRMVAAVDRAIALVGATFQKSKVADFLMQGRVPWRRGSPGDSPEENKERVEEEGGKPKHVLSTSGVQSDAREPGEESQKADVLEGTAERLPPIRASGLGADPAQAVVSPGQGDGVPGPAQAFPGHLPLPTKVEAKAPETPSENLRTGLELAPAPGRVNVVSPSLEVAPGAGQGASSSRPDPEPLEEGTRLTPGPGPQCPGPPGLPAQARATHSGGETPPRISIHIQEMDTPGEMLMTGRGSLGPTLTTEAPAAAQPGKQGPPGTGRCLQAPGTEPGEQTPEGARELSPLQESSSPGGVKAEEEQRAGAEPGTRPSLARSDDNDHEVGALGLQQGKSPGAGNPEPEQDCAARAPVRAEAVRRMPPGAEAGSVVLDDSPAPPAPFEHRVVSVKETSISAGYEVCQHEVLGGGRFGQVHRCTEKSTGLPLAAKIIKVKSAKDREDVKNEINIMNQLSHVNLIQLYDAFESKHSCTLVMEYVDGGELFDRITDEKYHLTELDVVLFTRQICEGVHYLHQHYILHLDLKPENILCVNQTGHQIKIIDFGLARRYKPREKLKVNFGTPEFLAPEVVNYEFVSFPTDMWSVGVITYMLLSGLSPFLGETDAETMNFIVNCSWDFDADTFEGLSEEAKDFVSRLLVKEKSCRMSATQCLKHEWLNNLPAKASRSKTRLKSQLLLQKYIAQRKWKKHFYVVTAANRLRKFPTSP
Source text: (§1) We assessed the selectivity of members of this scaffold using the KINOMEscan methodology across a near comprehensive panel of 442 kinases [[18,27]].

panel of 442 kinases [2] = biological target: T2, panel of 442 kinases (Homo sapiens, UniProt Q9H2K8); format: binding; conditions: kinase TAOK3; compound concentration 10 µM
T2 construct: purchased KINOMEscan
T2 sequence (Q9H2K8 1-898): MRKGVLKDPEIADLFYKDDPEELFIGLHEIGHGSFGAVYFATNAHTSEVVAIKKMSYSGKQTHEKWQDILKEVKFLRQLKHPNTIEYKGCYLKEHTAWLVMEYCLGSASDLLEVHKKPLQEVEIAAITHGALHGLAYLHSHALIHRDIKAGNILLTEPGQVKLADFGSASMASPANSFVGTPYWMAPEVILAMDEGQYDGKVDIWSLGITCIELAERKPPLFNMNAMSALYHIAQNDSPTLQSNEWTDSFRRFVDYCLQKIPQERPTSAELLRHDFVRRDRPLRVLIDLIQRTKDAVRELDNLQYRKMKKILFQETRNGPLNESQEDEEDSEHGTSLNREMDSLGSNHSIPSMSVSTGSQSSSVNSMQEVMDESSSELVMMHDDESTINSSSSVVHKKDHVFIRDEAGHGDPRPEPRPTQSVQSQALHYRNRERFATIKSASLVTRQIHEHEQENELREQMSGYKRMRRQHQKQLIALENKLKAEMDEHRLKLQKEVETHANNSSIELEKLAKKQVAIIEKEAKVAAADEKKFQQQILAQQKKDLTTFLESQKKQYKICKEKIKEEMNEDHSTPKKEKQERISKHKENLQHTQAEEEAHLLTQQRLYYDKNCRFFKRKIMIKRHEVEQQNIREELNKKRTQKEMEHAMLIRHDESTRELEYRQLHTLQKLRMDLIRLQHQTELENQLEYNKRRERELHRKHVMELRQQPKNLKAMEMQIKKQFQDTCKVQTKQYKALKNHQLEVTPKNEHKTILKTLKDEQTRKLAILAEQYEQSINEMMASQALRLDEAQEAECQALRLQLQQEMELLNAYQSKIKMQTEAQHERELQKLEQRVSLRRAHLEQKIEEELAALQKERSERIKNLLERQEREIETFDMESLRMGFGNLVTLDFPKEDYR
Source text: as §1

Structure (SMILES) | KINOMEscan: MLCK (panel of 442 kinases [1]) | % Ctrl, TAOK3 (panel of 442 kinases [2])
CCOc1cc(C(=O)N2CCC(N3CCN(C)CC3)CC2)ccc1Nc1ncc2c(n1)N(C1CCCC1)c1ccccc1C(=O)N2C [Compound 26] | 100 | 82 % Ctrl
COc1cc(C(=O)N2CCC(N3CCN(C)CC3)CC2)ccc1Nc1ncc2c(n1)N1CCc3cccc(c31)C(=O)N2C [Compound 24] | – | 100 % Ctrl
COc1cc(C(=O)N2CCC(N3CCN(C)CC3)CC2)ccc1Nc1ncc2c(n1)N(C)c1ccccc1C(=O)N2C [15 (LRRK2-IN-1)] | 100 | 24 % Ctrl
COc1cc(C(=O)N2CCC(N3CCN(C)CC3)CC2)ccc1Nc1ncc2c(n1)N(C1CCCC1)c1ccccc1C(=O)N2C [Compound 25, 11-cyclopentyl-2-((2-methoxy-4-(4-(4-methylpiperazin-1-yl)piperidine-1-carbonyl)phenyl)amino)-5-methyl-5H-benzo[e]pyrimido[5,4-b][1,4]diazepin-6(11H)-one] | 100 | 100 % Ctrl
